As usually defined, the pIC50 is −log10 of the IC50, conventionally taken in molar units. A higher pIC50 goes with a small IC50.

pIC50: −log10 of the molar value. A value given as a limit tells only on which side of the number the result lay.

For the assay, the system named is HIF-1 (HRE-dependent luciferase reporter). Nature of the assay: HRE-luciferase assay, screening of HIF-1 inhibitors in HCT116 cells. To be noted: HCT116 cells stably expressing HRE-dependent luciferase reporter, hypoxic conditions, 12 hours, means of three experiments. It is filed as cell-based, human. Here is the method: HCT116 cells stably expressing the HRE-dependent luciferase reporter were treated with the disubstituted adamantyl derivative prepared in the above example under hypoxic conditions for 12 hours before measuring luciferase activity.
In HCT116 cells treated with disubstituted adamantyl derivatives, luciferase activity was investigated using HRE-luciferase assay. The HRE-luciferase reporter assay was performed as previously described using the luciferase assay system (Promega, Madison, WI, USA) according to the manufacturer's instructions (Naik, R. et al. Synthesis and Structure-Activity Relationship of (E)Phenoxyacrylic Amide Derivatives as Hypoxia-Inducible Factor (HIF) 1α Inhibitors. J. Med. Chem. 55, 10564-1057 (2012)). Luciferase activity was measured using a Victor X light luminescence reader (PerkinElmer, Boston, MA, USA).
On the technique in general: In a reporter assay the amount or activity of a reporter protein is the signal.

`COc1ccc(COC(=O)C23CC4CC(CC(C4)C2c2ccc(OCC(=O)N4CCN(C)CC4)cc2)C3)cc1OC` (stereo not shown) [Compound 14d, 3,4-Dimethoxybenzyl-2-(4-(2-(4-methylpiperazin-1-yl)-2-oxoethoxy)phenyl) adamantane-1-ylcarboxylate] gave a negative-log IC50 (pIC50) of 5.78.

Under “Homo sapiens, HCT-116”, `COC(=O)c1cccc(NC(=O)COc2ccc(C34CC5CC(CC(C(=O)Nc6ccccn6)(C5)C3)C4)cc2)c1` [Compound 10i, Methyl-3-(2-(4-(3-(pyridin-2-ylcarbamoyl)-adamantan-1-yl)phenoxy)acetamido)benzoate] gave a negative logarithm of the IC50 (pIC50) of 5.62.

The compound `CN1CCN(C(=O)COc2ccc(C34CC5CC(CC(C(=O)N6CCN(Cc7ccc(C(F)(F)F)cc7)CC6)(C5)C3)C4)cc2)CC1` [Compound 17b, 1-(4-Methylpiperazin-1-yl)-2-(4-(5-(4-(4-(trifluoromethyl)benzyl)piperazine-1-carbonyl)adamantan-1-yl-)phenoxy) ethanone] had a negative-log IC50 (pIC50) of 5.66.

With `CNC(=O)C12CC3CC(C1)CC(c1ccc(OCC(=O)Nc4cccc(C(=O)OC)c4)cc1)(C3)C2` [Compound 10f, Methyl-3-(2-(4-(3-methylcarbamoyl-adamantan-1-yl)phenoxy)acetamido)benzoate], for the setting “Homo sapiens, HCT-116”, the pIC50 is 4.78.

For the compound `COc1ccc(COC(=O)C23CC4CC(CC(C4)C2c2ccc(OCC(=O)NCc4ccco4)cc2)C3)cc1OC` (stereo not shown) [Compound 14c, 3,4-Dimethoxybenzyl-2-(4-(2-(furan-2-ylmethylamino)-2-oxoethoxy)phenyl) adamantane-1-ylcarboxylate], the pIC50 was 4.65.

Where the note is “Homo sapiens, HCT-116”, `COC(=O)c1cccc(NC(=O)COc2ccc(C34CC5CC(CC(C(=O)NCc6ccco6)(C5)C3)C4)cc2)c1` [Compound 10h, Methyl-3-(2-(4-(3-(furan-2-ylmethylcarbamoyl)-adamantan-1-yl)phenoxy)acetamido)benzoate] gave a pIC50 of 5.52.

For the setting “Homo sapiens, HCT-116”, `COC(=O)c1cccc(NC(=O)COc2ccc(C34CC5CC(CC(C(=O)OCc6ccco6)(C5)C3)C4)cc2)c1` [Compound 10e, Methyl-3-(2-(4-(3-((furan-2-ylmethoxy)carbonyl)adamantane-1-yl)phenoxy)acetamido)benzoate] gave a negative-log IC50 (pIC50) of 5.19.

With `COC(=O)c1cccc(NC(=O)COc2ccc(C34CC5CC(CC(C(=O)NCc6ccccc6)(C5)C3)C4)cc2)c1` [Compound 10g, Methyl-3-(2-(4-(3-benzylcarbamoyl-adamantan-1-yl)phenoxy)acetamido)benzoate], the pIC50 (Homo sapiens, HCT-116) was 5.89.

Consider `COc1cc2c(cc1OC)CN(C(=O)C13CC4CC(C1)CC(c1ccc(OCC(=O)N5CCN(C)CC5)cc1)(C4)C3)CC2` [Compound 21b, 2-(4-(3-(6,7-Dimethoxy-1,2,3,4-tetrahydroisoquinoline-2-carbonyl)adamantan-1-yl)phenoxy)-1-(4-methylpiperazin-1-yl) ethanone], for which the pIC50 (Homo sapiens, HCT-116) is 5.02.

Regarding `CN1CCN(C(=O)COc2ccc(C34CC5CC(CC(C(=O)NCc6ccco6)(C5)C3)C4)cc2)CC1` [Compound 17a, N-(Furan-2-ylmethyl)-5-(4-(2-(4-methylpiperazin-1-yl)-2-oxoethoxy)phenyl) adamantan-1-yl-carboxamide], the negative logarithm of the IC50 (pIC50) was less than 4.70.

Consider `COc1ccc(CN2CCN(C(=O)C34CC5CC(C3)CC(c3ccc(OCC(=O)N6CCN(C)CC6)cc3)(C5)C4)CC2)cc1` [Compound 17c, 2-(4-(5-(4-(4-Methoxybenzyl)piperazine-1-carbonyl)adamantan-1-yl)phenoxy)-1-(4-methylpiperazin-1-yl) ethanone], for which, under “Homo sapiens, HCT-116”, the pIC50 was 5.02.

The compound `COC(=O)c1cccc(NC(=O)COc2ccc(C34CC5CC(CC(C(=O)OC)(C5)C3)C4)cc2)c1` [Compound 10a, Methyl-3-(2-(4-(3-((methoxy)carbonyl)adamantane-1-yl)phenoxy)acetamido)benzoate] had a negative logarithm of the IC50 (pIC50) (Homo sapiens, HCT-116) of 4.74.

`COc1ccc(COC(=O)C23CC4CC(CC(C4)C2c2ccc(OCC(=O)Nc4cccc(C(F)(F)F)c4)cc2)C3)cc1OC` (stereo not shown) [Compound 14a, 3,4-Dimethoxybenzyl-2-(4-(2-oxo-2-(3-(trifluoromethyl)phenylamino)ethoxy)phenyl) adamantane-1-ylcarboxylae] had a pIC50 of less than 4.70.

The compound `COc1ccc(COC(=O)C23CC4CC(CC(C4)C2c2ccc(OCC(=O)Nc4cccc5cccnc45)cc2)C3)cc1OC` (stereo not shown) [Compound 14b, 3,4-Dimethoxybenzyl-2-(4-(2-oxo-2-(quinolin-8-ylamino)ethoxy)phenyl) adamantane-1-ylcarboxylate] had a negative-log IC50 (pIC50) of less than 4.70.

Under “Homo sapiens, HCT-116”, `COC(=O)c1cccc(NC(=O)COc2ccc(C34CC5CC(C3)C(C(=O)OCc3ccc(OC)c(OC)c3)C(C5)C4)cc2)c1` (stereo not shown) [Compound 10c, Methyl-3-(2-(4-(4-((3,4-dimethoxybenzyloxy)carbonyl)adamantane-1-yl)phenoxy)acetamido)benzoate] gave a pIC50 of 5.63.

In turn, `COC(=O)c1cccc(NC(=O)COc2ccc(C34CC5CC(CC(C5)C3C(=O)OCCc3ccc(OC)c(OC)c3)C4)cc2)c1` (stereo not shown) [Compound 10d, Methyl-3-(2-(4-(2-((3,4-dimethoxyphenethoxy)carbonyl)adamantane-1-yl)phenoxy)acetamido)benzoate] gave a negative-log IC50 (pIC50) (Homo sapiens, HCT-116) of less than 4.70.

`COC(=O)c1cccc(NC(=O)COc2ccc(C34CC5CC(C3)C(C(=O)OCc3ccc(OC)cc3)C(C5)C4)cc2)c1` (stereo not shown) [Compound 10b, Methyl-3-(2-(4-(4-((4-methoxybenzyloxy)carbonyl)adamantane-1-yl)phenoxy)acetamido)benzoate]: the negative-log IC50 (pIC50) (Homo sapiens, HCT-116) was less than 4.70.

Turning to `COC(=O)c1cccc(NC(=O)COc2ccc(C34CC5CC(CC(C(=O)N6CCc7cc(OC)c(OC)cc7C6)(C5)C3)C4)cc2)c1` [Compound 10j, Methyl-3-(2-(4-(3-(6,7-dimethoxy-1,2,3,4-tetrahydroisoquinoline-2-carbonyl)-adamantan-1-yl)phenoxy)acetamido)benzoate], the pIC50 (Homo sapiens, HCT-116) was 5.89.

For `COc1cc2c(cc1OC)CN(C(=O)C13CC4CC(C1)CC(c1ccc(OCC(=O)N5CCOCC5)cc1)(C4)C3)CC2` [Compound 21a, 2-(4-(3-(6,7-Dimethoxy-1,2,3,4-tetrahydroisoquinoline-2-carbonyl)adamantan-1-yl)phenoxy)-1-morpholinoethanone], the negative logarithm of the IC50 (pIC50) (Homo sapiens, HCT-116) is 5.27.

Source of the values: patent US12534436B2, “Disubstituted adamantyl derivative or pharmaceutically acceptable salt thereof, and pharmaceutical composition for suppressing cancer growth comprising same as active ingredient” (ONECUREGEN CO., LTD., priority 2020, dated 2026).
